Reference: PMC6491934 (Frontiers in Microbiology, 2019)
Read-outs that look alike come from different tables or passages of the source.

What was measured:
[1] = tested on: PrtP; experiment: proteinase extract of BGMN1-501 cells in 0.1 mol/L sodium phosphate buffer (NaPi, pH 7); details: Lactococcus lactis subsp. lactis BGMN1-501, up to 20 h
[2] = tested on: PrtP; experiment: culture of Lactococcus lactis subsp. lactis BGMN1-501 in chemically defined growth medium (CDM) with addition of 0.5% casitone; cell-free supernatant; details: Lactococcus lactis subsp. lactis BGMN1-501, 30°C, up to 16 h
[3] = tested on: proteinase PrtP; type: in vitro ADME, Lactococcus lactis subsp. lactis BGMN1-501
Procedure: For the purification and mass spectrometric analysis of the bacteriocin in Lactococcus lactis subsp. lactis BGMN1-501, the strain was grown at 30°C for 16 h in 500 mL of chemically defined growth medium (CDM)with addition of 0.5% casitone (Difco Laboratories, Becton Dickinson and Company, Franklin Lakes, NJ, United States). The bacteriocin was purified following the protocol of [Mirkovic et al. (2016)]. Briefly, the cells were removed by centrifugation (4,500 × g for 30 min at 4°C), while the supernatant was saturated up to 40% with ammonium sulfate, and precipitated with stirring for 2 h at 4°C. The precipitate was collected by centrifugation (10,000 × g for 30 min at 4°C) and then dissolved in 5 mL of Milli-Q water containing 0.1% trifluoroacetic acid. The bacteriocin was further purified using reverse-phase high-performance liquid chromatography (HPLC). […] The chromatography was monitored by measuring absorbance at 215 nm. […] Both recombinant peptides and the reaction mixtures of LcnB and PrtP were analyzed using the same reverse-phase chromatography as used for bacteriocin purification (see Section “Bacteriocin LcnB Purification From Lactococcus lactis subsp. lactis BGMN1-501”).

[4] = tested on: BGMN1-596; experiment: Glucose-uptake inhibition assay (growth of BGMN1-596 in GM17); type: cell-based, Lactococcus lactis subsp. lactis; details: chemically synthetized LcnB^∗, 0–1,000 μg/mL (highest concentration), BGMN1-596 5% inoculum in GM17, OD 600 nm over 6 h, triplicate
Procedure: To test whether truncated peptide can interfere with glucose import, growth of BGMN1-596 in GM17 with added LcnB^∗ was monitored. Fresh overnight culture, grown in GM17, was inoculated at 5% to fresh media, and saturated with increased concentrations (0–1,000 μg/mL) of chemically synthetized LcnB^∗. As a control, the same inoculum was made in media without glucose. Bacterial growth was monitored in microtitar plates by OD measurement at 600 nm at different time points for 6h. The assay was done in triplicate.

[5] = tested on: Lactococcus lactis subsp. lactis BGMN1-596; experiment: Spot-on-lawn bacteriocin activity assay; type: cell-based; details: sensitive strain BGMN1-596, 30°C overnight
Procedure: The activity of HPLC-obtained fractions and of chemically synthesized bacteriocin was evaluated by spot-on-lawn assays. Soft GM17 agar (0.75%, w/v) containing sensitive strain was overlaid onto thin GM17 agar plates. After soft agar solidified, 10 μL of sample was spotted and plates were incubated at 30°C overnight. Clear zones of growth inhibition in the spots were used as positive signals. Lactococcus lactis subsp. lactis BGMN1-596 was used in all tests as sensitive strain.

[6] = tested on: proteinase PrtP; type: in vitro ADME, Lactococcus lactis subsp. lactis BGMN1-501; remark: listed apart in the source
Procedure: Bacteriocin activity of BGMN1-501, as well as of recombinantly produced bacteriocin was evaluated by an agar-well diffusion test ([Lozo et al., 2004]). The activity of HPLC-obtained fractions and of chemically synthesized bacteriocin was evaluated by spot-on-lawn assays. Soft GM17 agar (0.75%, w/v) containing sensitive strain was overlaid onto thin GM17 agar plates. After soft agar solidified, 10 μL of sample was spotted and plates were incubated at 30°C overnight. Clear zones of growth inhibition in the spots were used as positive signals. Lactococcus lactis subsp. lactis BGMN1-596 was used in all tests as sensitive strain. Proteinase extract was prepared as following: BGMN1-501 was grown on milk citrate agar plates, collected and re-suspended in 0.1 mol/L sodium phosphate buffer (NaPi, pH 7), incubated at room temperature for 30 min, pelleted by centrifugation and supernatants were collected prior to reactions. In vitro testing of effect of proteinase extract on bacteriocin activity was done as previously described ([Vukotic et al., 2015]), except that recombinant bacteriocins were used as substrates in the reactions.

[7] = tested on: LcnB receptor on sensitive BGMN1-596 cells (man-PTS); experiment: Bacteriocin competition assay; type: cell-based, Lactococcus lactis subsp. lactis; details: 10 μL of 62.5–1,000 μg/mL LcnB^∗ adsorbed 30 min at room temperature, then 50 μL BGMN1-501 culture, overnight 30°C
Procedure: The possibility of truncated peptide LcnB^∗ to compete with wild type LcnB for binding to its receptor molecule was tested in bacteriocin competition assay. Bacteriocin assay was prepared, as explained above. Before addition of bacteriocin producer, 10 μL of increasing concentrations (62.5–1,000 μg/mL) of LcnB^∗ was added to the wells made in soft agar and left for 30 min at room temperature to be completely adsorbed. After that, 50 μL of fresh BGMN1-501 culture was added to the wells, and incubated overnight at 30°C to produce growth inhibition zones.

| Sequence | cleaved bond [1] | cleaved bond [2] | PrtP cleavage site in the peptide [3] | amount of peptide left after PrtP hydrolysis [3] | effect on bacterial growth (interference with glucose import) [4] | antimicrobial activity (growth inhibition zone) ([5]; chemically synthesized peptide (Biomatik), 10 μL spotted, up to 1 mg/mL) | antimicrobial activity (growth inhibition zone) ([5]; recombinant peptide (pMAL system, E. coli ER2523), 50–500 μg/mL) | bacteriocin activity after incubation with PrtP extract [6] | bacteriocin activity after incubation with PrtP extract ([6]; pH 7) | effect of pretreatment on bacteriocin activity of wild type LcnB (competition for the receptor) [7] |
| --- | --- | --- | --- | --- | --- | --- | --- | --- | --- | --- |
| SLQYVMSAGPYTWYKDTRTGKTICKQTIDTASYTFGVMAEGWGKTFH | methionine6-serine7, major, 3 h | methionine6-serine7 |  |  |  |  |  |  |  |  |
| SLQYVMSAGPYTWYKDTRTGKTICKQTIDTASYTFGVMAEGWGKTFH [LcnB, bacteriocin of Lactococcus lactis subsp. lactis BGMN1-501, mature peptide, produced recombinantly in E. coli ER2523] |  |  | between sixth and seventh amino acid | drastically reduced | did not alter bacterial growth | inactive | strong antimicrobial activity | no activity could be detected | reduced the bacteriocin activity | did not influence the latter bacteriocin activity of wild type molecule |
